The values below come from patent US11780830B2, “Triazolone derivatives or salts thereof and pharmaceutical compositions comprising the same” (YUHAN CORPORATION, priority 2018, dated 2023).

Type in all cases: biochemical
The target of one assay is T1, recombinant human VAP-1 (Homo sapiens, UniProt Q16853).
T1 construct: purchased R&D systems
T1 sequence (Q16853 1-763): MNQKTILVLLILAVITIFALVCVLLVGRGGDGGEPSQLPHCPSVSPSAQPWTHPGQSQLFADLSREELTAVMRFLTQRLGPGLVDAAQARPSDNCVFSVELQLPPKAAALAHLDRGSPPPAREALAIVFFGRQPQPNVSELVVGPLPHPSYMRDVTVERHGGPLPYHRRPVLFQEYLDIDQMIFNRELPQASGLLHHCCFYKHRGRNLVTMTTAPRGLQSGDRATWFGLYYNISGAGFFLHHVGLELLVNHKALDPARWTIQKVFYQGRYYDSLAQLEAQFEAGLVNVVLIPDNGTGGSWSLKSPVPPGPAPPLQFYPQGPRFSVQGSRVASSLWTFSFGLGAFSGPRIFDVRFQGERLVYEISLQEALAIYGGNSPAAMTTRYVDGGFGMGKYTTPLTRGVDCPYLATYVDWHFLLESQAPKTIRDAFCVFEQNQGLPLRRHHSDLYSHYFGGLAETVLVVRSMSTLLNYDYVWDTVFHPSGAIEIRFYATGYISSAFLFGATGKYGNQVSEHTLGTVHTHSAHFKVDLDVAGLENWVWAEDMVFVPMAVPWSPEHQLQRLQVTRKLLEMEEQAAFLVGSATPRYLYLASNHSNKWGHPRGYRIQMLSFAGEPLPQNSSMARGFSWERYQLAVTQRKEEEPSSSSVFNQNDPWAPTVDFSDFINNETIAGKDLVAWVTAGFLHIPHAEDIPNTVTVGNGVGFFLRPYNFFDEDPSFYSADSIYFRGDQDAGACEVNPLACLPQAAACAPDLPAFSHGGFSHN
In words: Activity on recombinant human VAP-1, HRP-coupled Amplex Red hydrogen peroxide assay. Conditions: substrate 1 mM benzylamine; compound incubated with enzyme at 37° C. for 30 minutes; pH 7.4; read-out: Inhibitory Activity (IC50, nM) human VAP-1. The method, boiled down: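 8-point 1:3 dilutions, final DMSO <1%; 30 min enzyme preincubation, 37 °C, pH 7.4 phosphate. Start: 1 mM benzylamine + 200 uM Amplex Red + 1 U/mL HRP. Read ex544/em590 over 1-2 h; % rate decrease vs DMSO control, 4-parameter logistic IC50.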

Assay [1] has as its target T2, recombinant human MAO-A (monoamine oxidase-A) (Homo sapiens, UniProt P21397).
T2 construct: purchased Sigma-Aldrich
T2 sequence (P21397 1-527): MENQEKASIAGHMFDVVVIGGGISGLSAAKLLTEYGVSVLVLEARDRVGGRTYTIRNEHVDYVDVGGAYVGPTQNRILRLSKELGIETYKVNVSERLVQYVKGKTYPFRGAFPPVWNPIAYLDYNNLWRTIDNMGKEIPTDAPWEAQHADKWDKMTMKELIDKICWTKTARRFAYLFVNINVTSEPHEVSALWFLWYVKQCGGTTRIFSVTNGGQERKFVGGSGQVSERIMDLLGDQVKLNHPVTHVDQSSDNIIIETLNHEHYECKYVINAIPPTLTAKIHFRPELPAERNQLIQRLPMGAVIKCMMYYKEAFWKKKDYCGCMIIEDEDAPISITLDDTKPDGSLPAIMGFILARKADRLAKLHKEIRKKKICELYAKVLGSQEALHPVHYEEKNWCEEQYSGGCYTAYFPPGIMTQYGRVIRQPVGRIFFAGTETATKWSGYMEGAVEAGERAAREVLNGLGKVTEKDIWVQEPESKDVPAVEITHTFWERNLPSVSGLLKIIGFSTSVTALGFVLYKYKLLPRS
In words: Activity on recombinant human MAO-A, method similar to the VAP-1 assay. Conditions: substrate 0.5 mM tyramine; read-out: Inhibitory Activity (IC50, nM) MAO-A. The method, boiled down:
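HRP-coupled Amplex Red H2O2 assay, 50 mM sodium phosphate pH 7.4; compounds (8-point 1:3 series, final DMSO <1%) preincubated with enzyme 30 min at 37° C, then 200 uM Amplex Red, 1 U/mL HRP and substrate (MAO-A 0.5 mM tyramine; MAO-B 1 mM benzylamine) added. Resorufin fluorescence (ex 544/em 590 nm) read over 1-2 h; IC50 from four-parameter logistic fit.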

Assay [2] concerns the target T3, recombinant human MAO-B (monoamine oxidase-B) (Homo sapiens, UniProt P27338).
T3 construct: purchased Sigma-Aldrich
T3 sequence (P27338 1-520): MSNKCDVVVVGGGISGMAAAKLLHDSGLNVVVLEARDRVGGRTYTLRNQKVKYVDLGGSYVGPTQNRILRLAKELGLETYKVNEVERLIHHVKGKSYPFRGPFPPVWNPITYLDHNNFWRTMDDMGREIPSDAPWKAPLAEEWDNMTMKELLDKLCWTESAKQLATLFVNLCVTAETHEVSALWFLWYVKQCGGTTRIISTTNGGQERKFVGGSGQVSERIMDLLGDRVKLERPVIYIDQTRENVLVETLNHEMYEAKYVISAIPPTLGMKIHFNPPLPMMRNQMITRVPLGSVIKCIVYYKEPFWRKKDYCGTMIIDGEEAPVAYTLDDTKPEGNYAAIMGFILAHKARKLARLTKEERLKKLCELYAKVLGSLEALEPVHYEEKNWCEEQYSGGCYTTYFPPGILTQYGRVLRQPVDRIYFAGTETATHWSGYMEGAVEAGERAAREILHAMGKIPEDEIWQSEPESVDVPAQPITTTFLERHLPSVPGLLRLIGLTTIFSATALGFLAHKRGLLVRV
Kind of assay: Activity on recombinant human MAO-B, method similar to the VAP-1 assay. Particulars: substrate 1 mM benzylamine; read-out: Inhibitory Activity (IC50, nM) MAO-B. On the procedure:
The compounds according to the present technology were evaluated in terms of activity on recombinant human VAP-1 (R&D systems) by measuring the level of hydrogen peroxide in horseradish peroxidase (HRP)-coupled reaction using Amplex Red Hydrogen Peroxide Assay Kit (Molecular Probes, Invitrogen, USA). The experiment was carried out at room temperature using benzylamine as a substrate. In the HRP-coupled reaction, hydrogen peroxide oxidation of 10-acetyl-3,7-dihydroxyphenoxazine (Amplex Red reagent) produces resorufin, which is a highly fluorescent compound. Briefly, the test compound was dissolved in dimethyl sulfoxide (DMSO) at a concentration of 20 mM. The dose-response assessment was made by 1:3 serial dilution in DMSO, thereby creating an 8 point curve. The concentration of the upper part was controlled according to the efficacy of the compounds, followed by dilution with a reaction buffer solution to obtain a final DMSO concentration less than 1%. To each well of a 96 black well plate, human VAP-1 purified in 50 mM sodium phosphate buffer solution (pH7.4) was added. The test compounds dissolved in DMSO were incubated with the human VAP-1 enzymes at 37° C. for 30 minutes. After 30-minute incubation, each well is added with a reaction mixture containing 200 uM Amplex Red reagent prepared from 50 mM sodium phosphate buffer solution (pH 7.4), 1 mM benzylamine, and 1 U/mL HRP. Fluorescence intensity was measured at several time points during 1-2 hours using a microplate reader (Flexstation3, Molecular Devices) under the wavelength condition exciting at 544 nm and reading the emission at 590 nm. The inhibitory effect of the compounds was measured as a decrease (%) in the signal rate as compared to the control group without any inhibitor (only diluted DMSO). Data was fixed to a logistic model with four variables and IC50 value was calculated using GraphPad Prism program.
In addition, the compounds according to the present technology were evaluated in terms of activity on a recombinant human MAO-A (monoamine oxidase-A, Sigma-Aldrich) and a recombinant human MAO-B (monoamine oxidase-B, Sigma-Aldrich) by using as substrates, 0.5 mM tyramine and 1 mM benzylamine, respectively, with a method similar to the activity evaluation method for recombinant human VAP-1. The compounds according to the present technology were also evaluated in terms of activity on a recombinant human DAO (diamine oxidase, R&D systems) by using as a substrate 1 mM putrescine with a method similar to the activity evaluation method for recombinant human VAP-1.

Assay [3] has as its target T4, recombinant human DAO (diamine oxidase) (Homo sapiens, UniProt P19801).
T4 construct: purchased R&D systems
T4 sequence (P19801 20-751): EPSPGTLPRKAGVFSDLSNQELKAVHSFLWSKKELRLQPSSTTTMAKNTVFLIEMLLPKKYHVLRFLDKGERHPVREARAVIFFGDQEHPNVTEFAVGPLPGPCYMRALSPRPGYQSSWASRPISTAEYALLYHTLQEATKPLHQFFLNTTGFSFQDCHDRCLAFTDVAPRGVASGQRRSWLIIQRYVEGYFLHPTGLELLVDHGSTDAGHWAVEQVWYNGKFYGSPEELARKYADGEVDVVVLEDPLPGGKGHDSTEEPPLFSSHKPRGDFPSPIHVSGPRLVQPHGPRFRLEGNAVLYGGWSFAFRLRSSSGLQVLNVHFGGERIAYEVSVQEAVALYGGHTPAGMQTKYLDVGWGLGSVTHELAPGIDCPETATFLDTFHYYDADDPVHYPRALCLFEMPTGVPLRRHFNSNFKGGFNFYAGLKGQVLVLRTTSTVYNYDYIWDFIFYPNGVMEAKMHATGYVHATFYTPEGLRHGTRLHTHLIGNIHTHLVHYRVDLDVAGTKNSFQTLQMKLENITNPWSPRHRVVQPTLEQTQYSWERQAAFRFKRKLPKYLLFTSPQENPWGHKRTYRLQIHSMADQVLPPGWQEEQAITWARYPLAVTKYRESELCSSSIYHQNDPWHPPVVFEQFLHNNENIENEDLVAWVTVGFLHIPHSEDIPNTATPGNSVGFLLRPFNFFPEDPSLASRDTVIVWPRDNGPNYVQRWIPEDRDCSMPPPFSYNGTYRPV
In words: Activity on recombinant human DAO, method similar to the VAP-1 assay. Particulars: substrate 1 mM putrescine; read-out: Inhibitory Activity (IC50, nM) DAO. The method, boiled down:
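Inhibition of recombinant human diamine oxidase (DAO, R&D systems) was assessed by the same approach as the VAP-1 assay, using 1 mM putrescine as substrate. Hydrogen peroxide formed was detected through an HRP-coupled Amplex Red reaction yielding fluorescent resorufin, read at 544 nm excitation and 590 nm emission. IC50 values came from four-parameter logistic fitting in GraphPad Prism.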

Structures can show the parent of a compound that is named as a salt. Bounds are passed on as bounds.

What is called IC50 is the concentration that inhibits the measured activity by half.

Turning to `CSc1ccc(-c2ccc(Cn3cnn(C/C(=C/F)CN)c3=O)s2)cn1` [Example 46, 2-[(2E)-2-(aminomethyl)-3-fluoroprop-2-en-1-yl]-4-(5-[6-(methylsulfanyl)pyridin-3-yl]thiophen-2-ylmethyl)-2,4-dihydro-3H-1,2,4-triazol-3-one hydrochloride], the IC50 on recombinant human VAP-1 is 1.3 nM; in assay [1] it was over 10000 nM; in assay [2] it was 740 nM; in assay [3], 380 nM.

Consider `NC/C(=C\F)Cn1ncn(Cc2ccc(C#Cc3ccc(N4CCOCC4)nc3)s2)c1=O` [Example 129, 2-[(E)-2-(aminomethyl)-3-fluoro-allyl]-4-[[5-[2-(6-morpholino-3-pyridyl)ethynyl]-2-thienyl]methyl]-1,2,4-triazol-3-one hydrochloride], for which the 50% inhibitory concentration (IC50) on recombinant human VAP-1 was 0.6 nM; in assay [1] it was over 100000 nM; in assay [2], 770 nM; in assay [3] it was 360 nM.

For `NC/C(=C/F)Cn1ncn(Cc2ccc(-c3ccc(N)cc3)s2)c1=O` [Example 3, 2-[(2Z)-2-(aminomethyl)-3-fluoroprop-2-en-1-yl]-4-[5-(4-aminophenyl)thiophen-2-yl]methyl-2,4-dihydro-3H-1,2,4-triazol-3-one hydrochloride], the IC50 at recombinant human VAP-1 was determined as 4.7 nM; in assay [1] it was 72000 nM; in assay [2], 21 nM; in assay [3] it was 860 nM.

Consider `CN1Cc2cc(-c3ccc(Cn4cnn(C/C(=C/F)CN)c4=O)s3)ccc2NC1=O` [Example 147, 6-[5-({1-[(2E)-2-(aminomethyl)-3-fluoroprop-2-en-1-yl]-5-oxo-1,5-dihydro-4H-1,2,4-triazol-4-yl}methyl)thiophen-2-yl]-3-methyl-3,4-dihydroquinazolin-2(1H)-one], for which the IC50 at recombinant human VAP-1 was 0.3 nM; in assay [1], over 100000 nM; in assay [2], 6700 nM; in assay [3] it was 1000 nM.

In the case of `NC/C(=C\F)Cn1ncn(Cc2ccc(-c3ccc4[nH]ncc4c3)s2)c1=O` [Example 63, 2-[(2E)-2-(aminomethyl)-3-fluoroprop-2-en-1-yl]-4-[5-(1H-indazol-5-yl)thiophen-2-yl]methyl-2,4-dihydro-3H-1,2,4-triazol-3-one hydrochloride], the IC50 amounted to 0.9 nM on recombinant human VAP-1, 67000 nM in assay [1], 380 nM in assay [2] and 1200 nM in assay [3].

Consider `CN1C(=O)Cc2cc(-c3ccc(Cn4cnn(C/C(=C/F)CN)c4=O)s3)cnc21` [Example 73, 5-[5-(1-[(2E)-2-(aminomethyl)-3-fluoroprop-2-en-1-yl]-5-oxo-1,5-dihydro-4H-1,2,4-triazol-4-ylmethyl)thiophen-2-yl]-1-methyl-1,3-dihydro-2H-pyrrolo[2,3-b]pyridin-2-one hydrochloride], for which the IC50 on recombinant human VAP-1 is 0.2 nM; in assay [1], over 100000 nM; in assay [2] it was 6100 nM; in assay [3], 93 nM.

In the case of `NC/C(=C\F)Cn1ncn(Cc2ccc(-c3ccc4c(c3)CCCO4)s2)c1=O` [Example 109, 2-[(2E)-2-(aminomethyl)-3-fluoroprop-2-en-1-yl]-4-[5-(3,4-dihydro-2H-chromen-6-yl)thiophen-2-yl]methyl-2,4-dihydro-3H-1,2,4-triazol-3-one hydrochloride], the IC50 at recombinant human VAP-1 was 2.7 nM; in assay [1] it was 25300 nM; in assay [2] it was 104 nM; in assay [3], 2540 nM.
